Laboratory results from paper PMC12152883, “Bile acids inhibit equilibrative adenosine transport to alter adenosine receptor signaling in cholestasis” (The Journal of Biological Chemistry, 2025).
Values joined by “and” are separate entries in the source; they are usually repeats but may differ in a detail not shown here. Equal values may be shown once.

What was measured:
ENT1 [1] = target: T1, ENT1 (Homo sapiens, UniProt Q99808); assay: Inhibition of 3H-nucleoside influx by BAs in ENT1-expressing Xenopus oocytes; type: cell-based; details: 3H-Ado 20 μM, sodium-free buffer; for IC50: read-out: ENT1 IC50 (Ado uptake); for ENT1 % uptake inhibition (Ado): BA 100 μM
T1 construct: The complete ORF of ENT1 (amplified using forward primer); expressed in transfected cells; host or cells: Xenopus laevis oocytes injected with in vitro-transcribed capped mRNA from pOX-hENT1
T1 sequence (Q99808 1-456): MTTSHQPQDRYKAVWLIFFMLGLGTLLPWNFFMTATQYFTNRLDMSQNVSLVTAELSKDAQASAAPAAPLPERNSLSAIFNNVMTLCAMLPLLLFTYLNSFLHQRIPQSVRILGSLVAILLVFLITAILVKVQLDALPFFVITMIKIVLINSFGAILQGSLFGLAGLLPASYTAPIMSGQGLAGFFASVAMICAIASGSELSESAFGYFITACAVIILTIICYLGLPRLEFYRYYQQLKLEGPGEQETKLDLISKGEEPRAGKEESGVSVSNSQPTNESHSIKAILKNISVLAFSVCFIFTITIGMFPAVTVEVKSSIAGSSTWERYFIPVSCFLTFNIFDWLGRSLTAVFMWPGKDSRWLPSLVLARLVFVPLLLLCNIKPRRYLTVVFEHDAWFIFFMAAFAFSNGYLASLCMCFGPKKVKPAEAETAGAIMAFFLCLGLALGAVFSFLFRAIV
Excerpt: (§1) We expressed individual ENTs (ENT1, ENT2, and ENT3) in X. laevis oocytes (as described above) and analyzed the Ado influx from each of the ENTs in the presence of different BAs to better understand whether the inhibition profiles differ across human ENTs. […] We also conducted an analysis of the concentration-dependent inhibition of Ado transport to estimate the IC50 values of the BAs (Fig. 4, D–F and Table 2).
(§2) Inhibition of Ado influx in H2O- and ENT-injected oocytes by treatment with different BAs at 100 μM. D–F, concentration-dependent inhibition of Ado influx in ENT-injected oocytes by different BAs. The bars represent the mean ± SD (n = 8–12 oocytes). A representative experiment from 3 to 5 independent experiments is presented. Statistical analysis was performed using one-way ANOVA with Dunnett’s multiple comparisons test; ∗p < 0.032, ∗∗p < 0.0021, ∗∗∗∗p < 0.0001.
(§3) The generated pOX expression constructs were linearized with either the Not1 or Sac1 restriction enzymes. The digested products were purified via phenol‒chloroform extraction. The mRNAs were synthesized using mMESSAGE mMACHINE (Ambion) transcription kits according to the manufacturer’s instructions. The mRNAs were purified via lithium precipitation. Oocytes were procured from Ecocyte. Prior to experiments, procured oocytes were defolliculated by treating with collagenase A-OR II solution followed by washing with Barth’s solution. Following microscopic verification, selected oocytes were incubated to recover overnight at 25 °C in a shaker incubator. Fifty nanoliters (400–800 ng/μl) of equal amounts of mRNAs were injected into defolliculated oocytes the next day. Expression of plasmids was analyzed after RNA isolation from oocyte extracts and conducting qPCR analysis with gene-specific primers as described earlier ([30]). The injected oocytes were incubated at 15 °C for 24 h before transport assays were performed. […] Uptake was terminated by washing the oocytes three times with arrest buffer containing 20 mM uridine. Individual oocytes were shaken overnight in 10% SDS for complete dissolution, and then the radioactivity was quantified with a Beckman liquid scintillation counter. The data are presented as the mean ± SD (n = 8–12 oocytes). A representative experiment from 3 to 5 independent experiments is presented.

ENT3 = target: T2, ENT3 (Homo sapiens, UniProt Q9BZD2); assay: Inhibition of 3H-nucleoside influx by BAs in ENT3-expressing Xenopus oocytes; type: cell-based; details: for IC50 / ENT3 % uptake inhibition (Ado): 3H-Ado 20 μM, sodium-free buffer; for IC50: read-out: ENT3 IC50 (Ado uptake)
T2 construct: plasma membrane–directed ENT3 with a truncated N-terminus (that harbors lysosomal targeting motif); expressed in transfected cells; host or cells: Xenopus laevis oocytes injected with in vitro-transcribed mRNA from pOX-Δ36hENT3
T2 sequence (Q9BZD2 with tags, fused parts or gaps): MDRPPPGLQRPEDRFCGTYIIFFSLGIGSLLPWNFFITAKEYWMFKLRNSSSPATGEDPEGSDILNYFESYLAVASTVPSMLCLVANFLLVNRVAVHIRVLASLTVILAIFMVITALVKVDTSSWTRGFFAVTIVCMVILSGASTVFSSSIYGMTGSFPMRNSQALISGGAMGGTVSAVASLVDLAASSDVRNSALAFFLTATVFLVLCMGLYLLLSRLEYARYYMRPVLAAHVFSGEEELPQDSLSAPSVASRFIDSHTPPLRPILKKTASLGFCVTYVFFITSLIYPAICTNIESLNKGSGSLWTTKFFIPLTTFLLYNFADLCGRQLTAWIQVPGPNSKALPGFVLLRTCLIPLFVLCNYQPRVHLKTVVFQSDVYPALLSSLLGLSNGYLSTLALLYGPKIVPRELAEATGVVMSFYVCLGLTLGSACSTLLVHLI
Excerpt: as §1, §2, §3

ENT2 [2] = target: T3, ENT2 (Homo sapiens, UniProt Q14542); assay: BA transport by ENT2-injected oocytes quantified by LC-MS/MS; type: cell-based; design: expressed in transfected cells; host or cells: Xenopus laevis oocytes injected with in vitro-transcribed capped mRNA from pOX-hENT2; details: pH 7.4, p < 0.001 compared with water-injected oocytes
T3 sequence (Q14542 1-456): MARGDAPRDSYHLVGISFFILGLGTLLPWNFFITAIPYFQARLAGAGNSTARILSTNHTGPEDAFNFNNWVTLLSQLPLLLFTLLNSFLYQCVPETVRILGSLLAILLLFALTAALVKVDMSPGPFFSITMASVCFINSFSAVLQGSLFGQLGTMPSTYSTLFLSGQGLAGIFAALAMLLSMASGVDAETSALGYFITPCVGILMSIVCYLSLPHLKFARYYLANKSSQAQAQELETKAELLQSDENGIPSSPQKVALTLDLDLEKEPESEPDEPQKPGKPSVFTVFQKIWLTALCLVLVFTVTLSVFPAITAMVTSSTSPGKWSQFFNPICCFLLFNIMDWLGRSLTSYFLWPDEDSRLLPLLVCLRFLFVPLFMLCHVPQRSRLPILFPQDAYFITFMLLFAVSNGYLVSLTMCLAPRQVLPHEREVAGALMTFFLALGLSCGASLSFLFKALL
Procedure: Therefore, we studied several different BAs and used a liquid chromatography–tandem mass spectrometry (LC‒MS/MS) method to quantify the transport activity of H2O-injected and ENT2 mRNA-injected oocytes using TCA as a positive control. […] We subsequently tested the ability of ENT2 to transport BAs at different physiological pH values ranging from pH 5.5 to pH 7.4 by varying the pH of the transport buffers in which the assay was conducted.
The mass spectrometric validation of the transport of all metabolites was performed with oocytes using a previously reported method ([24]). […] After an incubation at 4 °C for 24 h, the samples were centrifuged at 20,000g for 10 min, and the supernatants were collected. The samples (10 μl) were injected into a Thermo Scientific Vanquish UPLC system interfaced with a Thermo Scientific TSQ Quantiva triple-stage quadrupole mass spectrometer equipped with an H-ESI ion source. MS detection was conducted in negative ionization mode, and the transitions monitored for each metabolite are listed in Sup. Table S2. The operational mass spectrometric parameters included a capillary voltage of 4.5 kV; sheath gas of 35 arbitrary units; auxiliary gas of 10 arbitrary units; sweep gas of two arbitrary units; ion transfer tube temperature of 350 °C; vaporizer temperature of 450 °C; dwell time of 50 ms per transition; collision energy of 5 V; and collision-induced dissociation gas of 1.5 mTorr. Chromatographic separation was performed on a Kinetex […] (100 × 2.1 mm; 1.7 μm particle size) from Phenomenex. The mobile phase consisted of solvent A: water (0.1% formic acid) and solvent B: acetonitrile (0.1% formic acid). The flow rate was set at 0.3 ml/min, and the autosampler was maintained at 4 °C throughout the analysis.

ENT2 [3] = target: T3, ENT2; assay: Inhibition of 3H-nucleoside influx by BAs in ENT2-expressing Xenopus oocytes; type: cell-based; design: expressed in transfected cells; host or cells: Xenopus laevis oocytes injected with in vitro-transcribed capped mRNA from pOX-hENT2; details: for IC50 / ENT2 % uptake inhibition (Ado): 3H-Ado 20 μM, sodium-free buffer; for IC50: read-out: ENT2 IC50 (Ado uptake)
Excerpt: as §1, §2, §3

ENT1 [4] = details: classical nucleoside transporter inhibitors; no reference given; cited from earlier work
ENT2 [5] = details: classical nucleoside transporter inhibitors; no reference given; cited from earlier work
ENT2 [6] = target: T3, ENT2; assay: Inhibition of 3H-CA transport by ENT2 in oocytes by nucleoside transporter inhibitors; type: cell-based; design: expressed in transfected cells; host or cells: Xenopus laevis oocytes injected with in vitro-transcribed capped mRNA from pOX-hENT2; details: inhibitor at 10 μM (Fig. 2D legend 100 μM), pH 7.4
Procedure: Next, we asked whether the transport patterns of the above BAs mediated by ENT2 are similar to those of nucleoside transport in terms of pharmacological inhibition or pH-dependent properties.
Oocytes were procured from Ecocyte. Prior to experiments, procured oocytes were defolliculated by treating with collagenase A-OR II solution followed by washing with Barth’s solution. Following microscopic verification, selected oocytes were incubated to recover overnight at 25 °C in a shaker incubator. Fifty nanoliters (400–800 ng/μl) of equal amounts of mRNAs were injected into defolliculated oocytes the next day. […] The injected oocytes were incubated at 15 °C for 24 h before transport assays were performed. The uptake of radiolabeled substrates was measured after a 30 min incubation in transport buffer (100 mM NaCl, 2 mM KCl, 1 mM CaCl2, 1 mM MgCl2, and 10 mM Hepes, pH 7.4) at room temperature. Uptake was terminated by washing the oocytes three times with arrest buffer containing 20 mM uridine. Individual oocytes were shaken overnight in 10% SDS for complete dissolution, and then the radioactivity was quantified with a Beckman liquid scintillation counter. The data are presented as the mean ± SD (n = 8–12 oocytes). A representative experiment from 3 to 5 independent experiments is presented.

| SMILES | IC50 (ENT1 [1]) [µM] | ENT1 % uptake inhibition (Ado) (ENT1 [1]) [%] | IC50 (ENT3) [µM] | ENT3 % uptake inhibition (Ado) (ENT3; BA 100 μM) [%] | transport by ENT2 mRNA-injected vs water-injected oocytes (LC-MS/MS) (ENT2 [2]) | IC50 (ENT2 [3]) [µM] | ENT2 % uptake inhibition (Ado) (ENT2 [3]; BA 100 μM) | other results |
| --- | --- | --- | --- | --- | --- | --- | --- | --- |
| C[C@H](CCC(=O)O)[C@H]1CC[C@H]2[C@@H]3[C@H](O)C[C@@H]4C[C@H](O)CC[C@]4(C)[C@H]3CC[C@]12C [CDCA, chenodeoxycholic acid] | 24.3 ± 7 | 69.12 | 0.3 ± 0.1 | 77.0 | significant transport | 22.9 ± 4.9 | 66.07% | inhibition of guanosine transport mediated by ENT2 (ENT2 [3]; BA 100 μM, 3H-guanosine 20 μM): not statistically significant |
| C[C@H](CCC(=O)NCC(=O)O)[C@H]1CC[C@H]2[C@@H]3[C@H](O)C[C@@H]4C[C@H](O)CC[C@]4(C)[C@H]3C[C@H](O)[C@]12C [GCA, glycocholic acid] | 39.5 ± 8.5 | 35.05 | 10.7 ± 4.6 | 68.0 | significant transport | 16.7 ± 3.9 | 72.22% | – |
| C[C@H](CCC(=O)O)[C@H]1CC[C@H]2[C@@H]3CC[C@@H]4C[C@H](O)CC[C@]4(C)[C@H]3CC[C@]12C [LCA] | 66.9 ± 15.4 | 32.59 | 88.8 ± 27.4 | 71.2 | – | 18.4 ± 4.5 | 71.04% | – |
| O=[N+]([O-])c1ccc(CSc2ncnc3c2ncn3C2OC(CO)C(O)C2O)cc1 (centres unmarked) [NBMPR, nitrobenzylthioinosine] | – | – | – | – | – | – | – | Ki (ENT1 [4]): ~0.01 µM; Ki (ENT2 [5]): ~10 µM; reduction of 3H-CA transport by ENT2 compared with uninhibited control (ENT2 [6]): 53.38% |
| C[C@H](CCC(=O)NCCS(=O)(=O)O)[C@H]1CC[C@H]2[C@@H]3[C@@H](O)C[C@@H]4C[C@H](O)CC[C@]4(C)[C@H]3CC[C@]12C [TUDCA, tauroursodeoxycholic acid] | 204 ± 63 | 42.72 | 35.3 ± 16.4 | 62.6 | – | 4.9 ± 1.1 | 77% and 77.30% | inhibition of guanosine transport activity of ENT3 (ENT3; BA 100 μM, 3H-guanosine 20 μM): inhibited |
| C[C@H](CCC(=O)O)[C@H]1CC[C@H]2[C@@H]3[C@@H](O)[C@@H](O)[C@@H]4C[C@H](O)CC[C@]4(C)[C@H]3CC[C@]12C [beta-muricholic acid] | – | – | – | – | significant transport | – | – | – |
| COc1cc(C(=O)OCCCN2CCCN(CCCOC(=O)c3cc(OC)c(OC)c(OC)c3)CC2)cc(OC)c1OC [dilazep] | – | – | – | – | – | – | – | Ki (ENT1 [4]): ~0.01 µM; Ki (ENT2 [5]): ~10 µM; reduction of 3H-CA transport by ENT2 compared with uninhibited control (ENT2 [6]): 38.02% |
| OCCN(CCO)c1nc(N2CCCCC2)c2nc(N(CCO)CCO)nc(N3CCCCC3)c2n1 [dipyridamole] | – | – | – | – | – | – | – | Ki (ENT1 [4]): ~0.01 µM; Ki (ENT2 [5]): ~10 µM; reduction of 3H-CA transport by ENT2 compared with uninhibited control (ENT2 [6]): 34.57% |
| C[C@H](CCC(=O)O)[C@H]1CC[C@H]2[C@@H]3[C@H](O)[C@H](O)[C@@H]4C[C@H](O)CC[C@]4(C)[C@H]3CC[C@]12C [hyocholic acid] | – | – | – | – | significant transport | – | – | – |
| C[C@H](CCC(=O)NCCS(=O)(=O)O)[C@H]1CC[C@H]2[C@@H]3[C@@H](O)[C@@H](O)[C@@H]4C[C@H](O)CC[C@]4(C)[C@H]3CC[C@]12C [tauro-beta-muricholic acid] | – | – | – | – | significant transport | – | – | – |
| C[C@H](CCC(=O)O)[C@H]1CC[C@H]2[C@@H]3[C@@H](O)C[C@@H]4C[C@H](O)CC[C@]4(C)[C@H]3CC[C@]12C [ursodeoxycholic acid] | – | – | – | – | significant transport | – | – | – |
